US10071042B2, “External dermatological agent for anti-ageing” (Hayashibara Co., Ltd., priority 2014, dated 2018)
Marks after values point to notes of the source that are not given here. Blank lines part the entries; values can stand above or below the compound they belong to.

Legend:
matrix metalloprotease-1 = experiment: Matrix metalloprotease-1 production of NHDF after IL-1β, ELISA (Experiments 5 and 9); assay type: cell-based, human; conditions: for Production level of matrix metalloprotease-1 (%): human IL-1β 1 ng/ml, control = 100%
Procedure: Normal human dermal fibroblasts (NHDF), which had been suspended in a Dulbecco's Modified Eagle Medium supplemented with 10% fetal calf serum to give a concentration of 2.5×10^5 cells/mL, were placed in 96-well microplates by 0.1 mL/well and cultured until reaching a confluent state over the bottom of each well. Thereafter, the medium in each well was replaced with a fresh serum-free culture medium and culture for another 24 hours, added with any one of the test substances in Table 6 at each concentration shown in the table, and cultured for additional 24 hours. Then, the resulting cell cultures were added with human IL-1β to give a final concentration of 1 ng/ml, followed by culturing the cells for another 24 hours. After completion of the culture, matrix metalloprotease-1 in the supernatant in each well was detected with an enzyme-linked immuno sorbent assay (ELISA), commercialized by R & D Systems, Inc., MN, USA, developed coloration with tetramethylbenzidine, and measured for absorption at a wavelength of 450 nm. A control system was provided similarly as above except for not adding any test substance, and determined for the activity of matrix metalloprotease-1 similarly as in the above to be regarded as 100%. The production level of matrix metalloprotease-1 for each test substance was comparatively evaluated based on the following equation. Equation: Production level of matrix metalloprotease-1 (relative value (%))=[(Absorbance of a sample with any one of test substances)/(Absorbance of control)]×100
The experiment was repeated three times, and the data were compared to that of control with the Dunnett's multiple comparisons test. The symbol “*” means a level of significance of p<0.01.
Except for adding the test substances listed in Table 12 at respective concentrations shown in the table, experiments were respectively conducted in accordance with the methods in Experiment 5 disclosed in the specification to examine the effect of the combination use with ascorbic acid 2-glucoside used as a skin whitener in cosmetics on the action of anti-wrinkles by analogues of adenosine N1-oxide 5′-phosphate. A control system was provided and similarly treated as above except for not adding any test substance. The reduction rate of the production level of matrix metalloprotease-1 against that of control based on the following equation. Equation: Reduction rate of the production level of matrix metalloprotease−1(%)=100−[(Absorbance of a sample with any one of test substances)/(Absorbance of control)]×100

transglutaminase = experiment: Transglutaminase activity, fluorescein cadaverine uptake (Experiments 1-3 and 7); assay type: cell-based, human; conditions: for Transglutaminase activity (%): control = 100%
Procedure: Normal human epidermal keratinocytes were cultured similarly as in Experiment 1-1, except for adding the test substances as listed in Table 3 to respective culture systems. The cultured normal human epidermal keratinocytes were added with 100 μM of fluorescein cadaverine and allowed to stand for four hours. Thereafter, the resulting cells were washed once with phosphate buffered saline and further treated with cold methanol for 10 min for cell fixation. The fixed cells were washed thrice with cold methanol, followed by the addition of phosphate buffered saline. Fluorescein cadaverine taken in the cells via transglutaminase was analyzed with Cell Imaging Station, commercialized by Molecular Probes Life Technology, France, and the analyzed fluorescent intensities were regarded as transglutaminase activities. There was provided a control system similarly as in the above, except for not adding any of the test substances. The transglutaminase activity of each test substance was evaluated as a relative value determined with the following equation using the fluorescent intensity of the control system being regarded as 100%. Equation: Transglutaminase activity (relative value (%))=[(Fluorescent intensity of a sample with any one of test substances)/(Fluorescent intensity of control)]×100
The experiment was repeated three times, and the data was subjected to the Dunnett's multiple comparisons with Control. The symbol “*” means a level of significance of p<0.01.
Except for adding the test substances listed in Tables 8 and 9 at respective concentrations shown in the tables, experiments were respectively conducted in accordance with the methods in Experiments 1-2 and 1-3 disclosed in the specification to examine the effect of the combination use of epigallocatechin gallate, which is used as an antioxidant for cosmetics, and sodium adenosine N1-oxide 5′-phosphate on the action of accelerating the cornified-envelope production and the action of enhancing the transglutaminase activity of sodium adenosine N1-oxide 5′-phosphate. A control system was provided and similarly treated as above except for not adding any test substance and was determined for both the increase rates of cornified-envelope production level and the transglutaminase activity, based on the following equations. Equation: Increase rate of cornified envelope production level (%)={[(Absorbance of a sample with any one of test substances)/(Absorbance of control)]×100}−100 Equation: Increase rate of transglutaminase (%)={[(Absorbance of a sample with any one of test substances)/(Absorbance of control)]×100}−100

[1] = tested on: normal human dermal fibroblasts (NHDF); experiment: Number of cells, cytometry kit (Experiment 5); assay type: cell-based; conditions: control = 100%
Description: The number of cells was counted with a cytometry kit (or a staining method) and the variation of cell number when added with any one of the test substances, based on the value of control being regarded as 100%.

[2] = 20 μM, listed as sodium adenosine N1-oxide 5′-phosphate

Compound: 3′-α-glucosyl adenosine N1-oxide [3′-α-Glucosyladenosine N1-oxide]
Production level of matrix metalloprotease-1 (%) (matrix metalloprotease-1; 200 μM): 78.7* % | Production level of matrix metalloprotease-1 (%) (matrix metalloprotease-1; 400 μM): 75.5* % | Production level of matrix metalloprotease-1 (%) (matrix metalloprotease-1; 800 μM): 68.6* % | Transglutaminase activity (%) (transglutaminase; 100 μM): 300% | Number of cells (%) ([1]; 200 μM): 103.8% | Number of cells (%) ([1]; 400 μM): 104.5% | Number of cells (%) ([1]; 800 μM): 97.4%

Compound: Nc1ncnc2c1ncn2[C@@H]1O[C@H](COP(=O)(O)O)[C@@H](O)[C@H]1O [Adenosine 5′-phosphate, reference compound]
Production level of matrix metalloprotease-1 (%) (matrix metalloprotease-1; 200 μM): 99.5% | Production level of matrix metalloprotease-1 (%) (matrix metalloprotease-1; 400 μM): 93.3% | Production level of matrix metalloprotease-1 (%) (matrix metalloprotease-1; 800 μM): 90.3% | Transglutaminase activity (%) (transglutaminase; 400 μM): 244% | Number of cells (%) ([1]; 200 μM): 93.7% | Number of cells (%) ([1]; 400 μM): 89.9% | Number of cells (%) ([1]; 800 μM): 96.0%

Compound: Nc1c2ncn([C@@H]3O[C@H](CO)[C@@H](O)[C@H]3O)c2nc[n+]1[O-] [Adenosine N1-oxide, adenosine N1-oxide]
Production level of matrix metalloprotease-1 (%) (matrix metalloprotease-1; 5 μM): 86.6% | Production level of matrix metalloprotease-1 (%) (matrix metalloprotease-1; 10 μM): 77.6* % | Production level of matrix metalloprotease-1 (%) (matrix metalloprotease-1; 20 μM): 31.9* % | inhibition at 2 µM (matrix metalloprotease-1; Homo sapiens, NHDF, 2 μM, single use, reduction against control, read-out: Reduction rate of the production level of matrix metalloprotease-1 activity (%)): 10% | inhibition at 5 µM (matrix metalloprotease-1; Homo sapiens, NHDF, 5 μM, single use, reduction against control, read-out: Reduction rate of the production level of matrix metalloprotease-1 activity (%)): 13.4% | inhibition at 10 µM (matrix metalloprotease-1; Homo sapiens, NHDF, 10 μM, single use, reduction against control, read-out: Reduction rate of the production level of matrix metalloprotease-1 activity (%)): 22.4% | Transglutaminase activity (%) (transglutaminase; 20 μM): 632* % | Transglutaminase activity (%) (transglutaminase; 20 μM, listed as adenosine N1-oxide): about 630% | Number of cells (%) ([1]; 5 μM): 98.5% | Number of cells (%) ([1]; 10 μM): 94.6% | Number of cells (%) ([1]; 20 μM): 94.4%

Compound: Nc1ncnc2c1ncn2[C@@H]1O[C@H](CO)[C@@H](O)[C@H]1O [Adenosine, reference compound]
Production level of matrix metalloprotease-1 (%) (matrix metalloprotease-1; 200 μM): 88.7% | Production level of matrix metalloprotease-1 (%) (matrix metalloprotease-1; 400 μM): 93.4% | Production level of matrix metalloprotease-1 (%) (matrix metalloprotease-1; 800 μM): 85.6% | Transglutaminase activity (%) (transglutaminase; 400 μM): 360% | Number of cells (%) ([1]; 200 μM): 93.5% | Number of cells (%) ([1]; 400 μM): 87.4% | Number of cells (%) ([1]; 800 μM): 91.2%

Compound: Nc1c2ncn([C@@H]3O[C@H](COP(=O)([O-])O)[C@@H](O)[C@H]3O)c2nc[n+]1[O-].[Na+] [Sodium adenosine N1-oxide 5′-phosphate, sodium adenosine N1-oxide 5′-phosphate]
Reduction rate of the production level of matrix metalloprotease-1 activity (%) (matrix metalloprotease-1; 2 μM, single use, reduction against control): 2.9% | Production level of matrix metalloprotease-1 (%) (matrix metalloprotease-1; 5 μM): 96.0% | Reduction rate of the production level of matrix metalloprotease-1 activity (%) (matrix metalloprotease-1; 5 μM, single use, reduction against control): 4.0% | Production level of matrix metalloprotease-1 (%) (matrix metalloprotease-1; 10 μM): 83.1* % | Production level of matrix metalloprotease-1 (%) (matrix metalloprotease-1; 10 μM, listed as sodium adenosine N1-oxide 5′-phosphate): about 80% | Reduction rate of the production level of matrix metalloprotease-1 activity (%) (matrix metalloprotease-1; 10 μM, single use, reduction against control): 16.9% | Production level of matrix metalloprotease-1 (%) (matrix metalloprotease-1; 20 μM): 31.8* % | Production level of matrix metalloprotease-1 (%) (matrix metalloprotease-1; [2]): about 30% | Increase rate of transglutaminase activity (%) (transglutaminase; 15 μM, single use, increase over control): 0.0% | Transglutaminase activity (%) (transglutaminase; 20 μM): 569* % | Transglutaminase activity (%) (transglutaminase; [2]): about 570% | Number of cells (%) ([1]; 5 μM): 99.9% | Number of cells (%) ([1]; 10 μM): 99.5% | Number of cells (%) ([1]; 20 μM): 92.2%

Further lines, with some results ahead:

Transglutaminase activity (%) (transglutaminase; 400 μM): 269%
Compound: 3′-α-Glucosyladenosine [reference compound]
Production level of matrix metalloprotease-1 (%) (matrix metalloprotease-1; 200 μM): 86.6% | Production level of matrix metalloprotease-1 (%) (matrix metalloprotease-1; 400 μM): 87.1% | Production level of matrix metalloprotease-1 (%) (matrix metalloprotease-1; 800 μM): 98.7% | Number of cells (%) ([1]; 200 μM): 98.9% | Number of cells (%) ([1]; 400 μM): 101.1% | Number of cells (%) ([1]; 800 μM): 107.2%

Transglutaminase activity (%) (transglutaminase; 400 μM): 33%
Compound: 5′-α-Glucosyladenosine [reference compound]
Production level of matrix metalloprotease-1 (%) (matrix metalloprotease-1; 200 μM): 89.9% | Production level of matrix metalloprotease-1 (%) (matrix metalloprotease-1; 400 μM): 94.3% | Production level of matrix metalloprotease-1 (%) (matrix metalloprotease-1; 800 μM): 87.7% | Number of cells (%) ([1]; 200 μM): 104.0% | Number of cells (%) ([1]; 400 μM): 103.4% | Number of cells (%) ([1]; 800 μM): 93.4%

Transglutaminase activity (%) (transglutaminase; 400 μM): 404* %
Compound: 5′-α-glucosyl adenosine N1-oxide [5′-α-Glucosyladenosine N1-oxide]
Production level of matrix metalloprotease-1 (%) (matrix metalloprotease-1; 200 μM): 85.4* % | Production level of matrix metalloprotease-1 (%) (matrix metalloprotease-1; 400 μM): 83.6* % | Production level of matrix metalloprotease-1 (%) (matrix metalloprotease-1; 800 μM): 77.0* % | Number of cells (%) ([1]; 200 μM): 108.1% | Number of cells (%) ([1]; 400 μM): 102.1% | Number of cells (%) ([1]; 800 μM): 102.6%
